Test results from patent US10351613B2, “Polypeptide for inhibition of tumor” (G-Bio Pharma Tech Co., Ltd., priority 2015, dated 2019).
Converted amounts (≈) assume the structure as drawn. Residues, ends and D or L forms follow the SMILES beside them.

What was measured:
[1] = tested on: Human lung cancer A549 tumor model; assay: Inhibition on in vivo growth of tumor in combination with DDP, A549 model; settings: for Tumor inhibitor rate (%): A549, day 21
Protocol: In vitro cultured tumor cells in exponential phase and in good state were formulated to a 100 μl cell suspension containing 5×10^6 tumor cells. The suspension was subcutaneously inoculated to nude mice. Well-grown solid tumors were obtained 15 days later and cut into uniform pieces of about 3 mm under sterile condition. Each nude mouse was inoculated by one piece through a trocar. Mice were re-grouped according the tumor size 10-14 days after inoculation and animals having too large and too small tumor were excluded from the test. […] Test drugs were administered to each group according to the experimental protocol. The major axis (a) and minor axis (b) of the tumor were measured twice a week. Animals were sacrificed at the end of the test. The tumor was taken out, weighed and photos were taken. Tumor volume (TV)=½×a×b^2; Relative tumor volume (RTV)=Vt/Vo, wherein Vo is the tumor volume measured before grouping (one day before administration of the test drug), and Vt is the tumor volume measured at each time. Tumor inhibition rate (%)=(1−T/C)×100%, wherein T is the average tumor volume of the treatment group and C is the average tumor volume of the negative control group.
The amino acid sequence of recombination endostatin (“endostatin”) was set forth in SEQ ID NO: 1, and the amino acid sequence of the marketed drug Endostar (“endostar”) was set forth in SEQ ID NO: 10. Human lung cancer A549 tumor model was constructed according to the method described in Example 10. The test contained 7 groups, with 6 animals in each group. The molar dose of the polypeptides was basically equal to the molar dose of endostatin.

[2] = tested on: Human Umbilical Vein Endothelial Cell (HUVEC); format: cell-based
Protocol: 20 cm umbilical cord adjacent to fetus was taken, cleaned by washing, ligated at both ends, placed into 150 ml preservation solutions for umbilical cord, and stored in a 4° C. refrigerator for digestion for 6 hours. The umbilical cord was inspected to remove the damaged portion. The umbilical vein was thoroughly cleaned by washing and then 10 ml collagenase solution was injected. Then the umbilical vein was transferred to a 37° C. incubator for digestion for 15 minutes. The umbilical cord was removed and the digested solution was recovered. The digested solution was washed by PBS and centrifuged. After centrifugation, the cells were culture by re-suspension.
(§1) Inhibition of cell growth was detected by a MTT method, which is based on the principle that succinate dehydrogenase in the mitochondria of the live cells could reduce the exogenous MTT (3-(4,5-dimethyl-2-thiazolyl)-2,5-diphenyl-tetrazolium bromide) to a […] Formazan which is a blue-violet crystal, and precipitates in the cells, while the death cells could not reduce MTT. DMSO could dissolve Formazan in the cells. Absorbance value of the solution was determined at 490/570 nm by microplate reader, which could indirectly indicate the amount of the live cells. The amount of the crystal from MTT is proportional to the amount of the cells within a certain range of cell number. The supernate from the HUVEC or tumor cells in exponential phase was removed and the cells were washed by PBS once. 1 ml 0.25% trypsin (4° C.) was added for digestion at 37° C. for 2 min. Then the supernate was added for neutralization and the cells were dispersed to form a suspension and the suspension was centrifuged at 1000 rpm for 3 min. The supernate was removed and 5 ml culture mediums were added for resuspension. Cells were inoculated in a 48-well plate by 500 ul/well at the concentration of 3×10^4/ml and then incubated under 5% CO2, 37° C. for 24 hours. The supernate was removed and a culture medium containing polypeptide (Zn^2+ in the culture medium was present at the concentration of 17.39 μmol/L) was added for further incubation for 48 hours. Supernate in each well was carefully removed. The well was gently washed by PBS once in an amount of 450 μl/well. 450 μl MTT culture mediums were added into each well for further cultivation for 4 hours. The supernate was carefully discarded. DMSO was added in an amount of 450 μl/well and then the plate was placed in a shaking bed for oscillation for 10 min in dark. 150 μl supernates were transferred to a 96-well ELISA plate and absorbance value of each well was detected at 490 nm and 570 nm by the microplate reader.

[3] = tested on: lung cancer cell line SPC-A-1; assay: In vitro death of SPC-A-1 tumor cell observed under optical microscope; format: cell-based; settings: SPC-A-1, 2.5 mg/ml
Protocol: Polypeptides were tested for their effect in inducing cell death of lung cancer cell line SPC-A-1 at a polypeptide concentration of 2.5 mg/ml according to the method described in Example 3. Cells were observed under an optical microscope over 24 hours and photos were taken. P2 exerts its function 4 hours after being added into the culture medium. […] On the contrary, they extremely swelled. 4 hours later cells further swelled and began to disintegrate at 8 hours. […] The manner of P2T2S18 caused cell death is very surprising. Currently, it is unable to determine what manner this kind of cell death belongs to. No report is found in papers as well. However, this mode of cell death is obviously different from that caused by P2. Together with the results in Example 7, it can conclude that P2T2S18 not only has a biological activity obviously higher than P2, but also has a manner causing cell death obviously different from that of P2.

SMMC7721 (Liver cancer) = assay: MTT in vitro inhibition of SMMC7721; format: cell-based; settings: for IC50: SMMC7721; for Cell Survival (%) at a polypeptide concentration of 1 mg/ml: SMMC7721, 1 mg/ml
Protocol: as §1
(§2) P2 (SEQ ID NO:2) and P2T2S18 (SEQ ID NO:6) were tested for their in vitro inhibition on SMMC7221, SPC-A-1, A549, LS174T, BEL7402, CK-MES-1 and BxPC-3 at a polypeptide concentration of 1 mg/ml according to the method described in Example 3. Results are shown in FIG. 9 and the following Table. […] All IC50 concentrations for P2T2S18 are less than 1/10 IC50 concentration of P2.

tumor cell HepG2 = format: cell-based
Protocol: as §1

[4] = tested on: BxPC-3 (pancreatic cancer); assay: MTT in vitro inhibition of BxPC-3; format: cell-based; settings: for IC50: BxPC-3; for Cell Survival (%) at a polypeptide concentration of 1 mg/ml: BxPC-3, 1 mg/ml
Protocol: as §1, §2

LS174T (Colon cancer) = format: cell-based
Protocol: as §1, §2

SPC-A-1 (lung carcinoma) = format: cell-based; settings: for IC50: SPC-A-1; for Cell Survival (%) at a polypeptide concentration of 1 mg/ml: SPC-A-1, 1 mg/ml
Protocol: as §1, §2

[5] = tested on: Human liver cancer BEL7404 tumor model; format: in vivo; settings: for Tumor inhibitor rate (%): BEL7404, day 21, polypeptides 15 mg/kg sc 2 times per day 21 days, endostatin/endostar 50 mg/kg sc, CTX 30 mg/kg ip 7 days
Protocol: In vitro cultured tumor cells in exponential phase and in good state were formulated to a 100 μl cell suspension containing 5×10^6 tumor cells. The suspension was subcutaneously inoculated to nude mice. Well-grown solid tumors were obtained 15 days later and cut into uniform pieces of about 3 mm under sterile condition. Each nude mouse was inoculated by one piece through a trocar. Mice were re-grouped according the tumor size 10-14 days after inoculation and animals having too large and too small tumor were excluded from the test. The average tumor volume for each group was basically identical. Test drugs were administered to each group according to the experimental protocol. The major axis (a) and minor axis (b) of the tumor were measured twice a week. Animals were sacrificed at the end of the test. The tumor was taken out, weighed and photos were taken. Tumor volume (TV)=½×a×b^2; Relative tumor volume (RTV)=Vt/Vo, wherein Vo is the tumor volume measured before grouping (one day before administration of the test drug), and Vt is the tumor volume measured at each time. Tumor inhibition rate (%)=(1−T/C)×100%, wherein T is the average tumor volume of the treatment group and C is the average tumor volume of the negative control group.
The amino acid sequence of recombination endostatin (“endostatin”) was set forth in SEQ ID NO: 1, and the amino acid sequence of the marketed drug Endostar (“endostar”) was set forth in SEQ ID NO: 10. Human liver cancer BEL7404 tumor model was constructed according to the method described in Example 10. The test contained 6 groups, with 6 animals in each group, except for the negative control group which contained 9 animals. The molar dose of the polypeptides was basically equal to the molar dose of endostatin. The results are shown in FIGS. 11a and 11b and the following Table.

A549 (lung carcinoma) = assay: MTT in vitro inhibition of A549; format: cell-based; settings: for IC50: A549; for Cell Survival (%) at a polypeptide concentration of 1 mg/ml: A549, 1 mg/ml
Protocol: as §1, §2

BEL7402 (Liver cancer) = assay: MTT in vitro inhibition of BEL7402; format: cell-based; settings: for IC50: BEL7402; for Cell Survival (%) at a polypeptide concentration of 1 mg/ml: BEL7402, 1 mg/ml
Protocol: as §1, §2

[6] = tested on: CK-MES-1 (lung squamous cell carcinoma); assay: MTT in vitro inhibition of CK-MES-1; format: cell-based; settings: for IC50: CK-MES-1; for Cell Survival (%) at a polypeptide concentration of 1 mg/ml: CK-MES-1, 1 mg/ml
Protocol: as §1, §2

Compound | IC50 (ug/ml) HUVEC [2] [µg/mL] | Cell Survival (%), 1 mg/ml of polypeptide, HUVEC [2] [%] | time after being added into the culture medium at which the polypeptide acts on the cells [3] [h] | state of cells at 24 hours [3] | IC50 (SMMC7721 (Liver cancer)) [µg/mL] | Cell Survival (%) at a polypeptide concentration of 1 mg/ml (SMMC7721 (Liver cancer)) [%] | IC50 (ug/ml) HepG2 (tumor cell HepG2) [µg/mL] | Cell Survival (%), 1 mg/ml of polypeptide, HepG2 (tumor cell HepG2) [%] | IC50 [4] [µg/mL] | Cell Survival (%) at a polypeptide concentration of 1 mg/ml [4] [%] | IC50 (LS174T (Colon cancer)) [µg/mL] | Cell Survival (%) at a polypeptide concentration of 1 mg/ml (LS174T (Colon cancer)) [%] | IC50 (SPC-A-1 (lung carcinoma)) [µg/mL] | Cell Survival (%) at a polypeptide concentration of 1 mg/ml (SPC-A-1 (lung carcinoma)) [%] | Tumor inhibitor rate (%) [5] [%] | IC50 (A549 (lung carcinoma)) [µg/mL] | Cell Survival (%) at a polypeptide concentration of 1 mg/ml (A549 (lung carcinoma)) [%] | IC50 (BEL7402 (Liver cancer)) [µg/mL] | Cell Survival (%) at a polypeptide concentration of 1 mg/ml (BEL7402 (Liver cancer)) [%] | IC50 [6] [µg/mL] | also measured
N.N.[Cl][Pt][Cl] [DDP, Cisplatin] | – | – | – | – | – | – | – | – | – | – | – | – | – | – | – | – | – | – | – | – | Tumor inhibitor rate (%) ([1]; DDP 2 mg/kg/day ip 7 days alone or with polypeptide 15 mg/kg or endostatin/endostar 50 mg/kg sc 2 times per day 21 days): 24.8%; Tumor inhibitor rate (%) ([1]; DDP 6 mg/kg/day ip 7 days (high dose)): 81.9%; animals with residual tumor ([1]; of 6 animals, combination with DDP 2 mg/kg, DDP alone 6 mg/kg): 6
CC[C@H](C)[C@H](NC(=O)CNC(=O)[C@H](CCCNC(=N)N)NC(=O)[C@H](CCSC)NC(=O)CNC(=O)CNC(=O)[C@H](CO)NC(=O)[C@H](CC(C)C)NC(=O)[C@H](CO)NC(=O)[C@H](CO)NC(=O)[C@H](CC(N)=O)NC(=O)[C@H](CC(C)C)NC(=O)[C@H](C)NC(=O)[C@@H](NC(=O)[C@H](CC(C)C)NC(=O)[C@H](Cc1c[nH]cn1)NC(=O)[C@H](CC(C)C)NC(=O)[C@@H](NC(=O)[C@@H]1CCCN1C(=O)[C@H](CCC(N)=O)NC(=O)[C@H](Cc1ccccc1)NC(=O)[C@H](CC(=O)O)NC(=O)[C@H](CCCNC(=N)N)NC(=O)[C@H](Cc1c[nH]cn1)NC(=O)[C@@H](NC(=O)[C@H](Cc1c[nH]cn1)NC(C)=O)[C@@H](C)O)C(C)C)C(C)C)C(=O)N[C@@H](CCCNC(=N)N)C(=O)NCC(=O)N[C@@H](C)C(=O)N[C@@H](CC(=O)O)C(N)=O [Polypeptide P2T2S18] (Ac-HTHRDFQPVLHLVALNSSLSGGMRGIRGAD-NH2) | 66.7 (≈ 20.3 µM) | 2 | 2 | only cell debrises left | 76.9 (≈ 23.4 µM) | 9 | 76.9 (≈ 23.4 µM) | 4 | 78.1 (≈ 23.8 µM) | 3 | 84.7 (≈ 25.8 µM) | 1 | 80.6 (≈ 24.5 µM) | 16 | 76.7 | 72.5 (≈ 22.1 µM) | 18 | 64.9 (≈ 19.8 µM) | 4 | 66.7 (≈ 20.3 µM) | Cell Survival (%) at a polypeptide concentration of 120 μM ([2]; 6 h, 120): 2%; reduction of IC50 concentration as compared to that of P2 ([2]; HUVEC and HepG2): about 10 folds; manner of induced cell death ([3]; optical microscope): cells did not shrink. On the contrary, they extremely swelled; IC50 concentration as fraction of IC50 concentration of P2 (SPC-A-1 (lung carcinoma); all seven tumor cell lines of Example 10): less than 1/10; toxic reaction ([5]; BEL7404 model, same regimens): did not produce toxic reaction; Cell Survival (%) at a polypeptide concentration of 1 mg/ml [6]: 7%
CC[C@H](C)[C@H](NC(=O)CNC(=O)[C@H](CCCNC(=N)N)NC(=O)[C@H](CCSC)NC(=O)CNC(=O)CNC(=O)[C@H](CO)NC(=O)[C@H](CC(C)C)NC(=O)[C@@H]1CCCN1C(=O)[C@H](CO)NC(=O)[C@H](CC(N)=O)NC(=O)[C@H](CC(C)C)NC(=O)[C@H](C)NC(=O)[C@@H](NC(=O)[C@H](CC(C)C)NC(=O)[C@H](Cc1c[nH]cn1)NC(=O)[C@H](CC(C)C)NC(=O)[C@@H](NC(=O)[C@@H]1CCCN1C(=O)[C@H](CCC(N)=O)NC(=O)[C@H](Cc1ccccc1)NC(=O)[C@H](CC(=O)O)NC(=O)[C@H](CCCNC(=N)N)NC(=O)[C@H](Cc1c[nH]cn1)NC(=O)[C@H](CO)NC(=O)[C@H](Cc1c[nH]cn1)NC(C)=O)C(C)C)C(C)C)C(=O)N[C@@H](CCCNC(=N)N)C(=O)NCC(=O)N[C@@H](C)C(=O)N[C@@H](CC(=O)O)C(N)=O [Polypeptide P2] (Ac-HSHRDFQPVLHLVALNSPLSGGMRGIRGAD-NH2) | 733.4 (≈ 224 µM) | 25 | 4 | basically died | 1030.2 (≈ 314 µM) | 42 | 1033.4 (≈ 315 µM) | 41 | 860.9 (≈ 262 µM) | 40 | 1683.8 (≈ 513 µM) | 95 | 1111.8 (≈ 339 µM) | 48 | 33.7 | 1312.2 (≈ 400 µM) | 57 | 732.9 (≈ 223 µM) | 20 | 863.1 (≈ 263 µM) | Cell Survival (%) at a polypeptide concentration of 1 mg/ml [6]: 42%
